Key:
Type in all cases: binding, sheep
Antibody to Immunogen IV = settings: Cross-reactants at 100 ng/ml; Antibody to Immunogen IV
Method: (§1) An aqueous solution of each immunogen was formulated with Freund's Complete Adjuvant (FCA) to form an emulsion consisting of 2mg/ml* immunogen in 50% (v/v) FCA. Three sheep were immunised with this emulsion (1° immunisation), 0.25ml being intramuscularly injected at each of four sites in the flank of each animal. Subsequent immunizations (boosts) contained 1mg/ml* immunogen. All boosts were emulsified in 50% (v/v) Freund's Incomplete Adjuvant (FIA) and were administered in the same manner as the 1° immunisation, at monthly intervals. Blood sampling took place 7 to 14 days after each boost. *The general procedure for immunogen administration is outlined above, however, it was necessary to deviate from this protocol in some cases, due to reduced immunogen concentrations (Immunogens II, IV, VII and VIII) and/or amount available (Immunogen VIII). Any deviations from the protocol described are outlined in Table 1A below and highlighted in bold. Table 1A: Amount and volume of immunogens administered for primary and subsequent boosts
(§2) The wells of an enhanced binding 96 well polystyrene microtiter plate were coated with IgG fraction of antiserum raised to Immunogen I or II, diluted in 10mM Tris, pH8.5 (125µl/well). The appropriate antibody coating dilution was determined using standard ELISA checkerboard techniques. The plate was incubated overnight at 4°C, washed 4 times over 10 minutes with Tris buffered saline containing Tween 20 (TBST) and tapped dry. Standard solutions (JWH-018 for Immunogens I and II) were applied at 0, 0.625, 1.25, 2.5, 5, 10, 20 and 40ng/ml and 50µl of each was added to the appropriate wells. 75µl of conjugate (appropriate hapten-HRP) diluted in Tris buffer (pH 7.2) containing EDTA, D-mannitol, sucrose, thimerosal and BSA, was added to each of the wells. The appropriate dilution of conjugate was also determined using standard ELISA checkerboard techniques. The plate was incubated at 25°C for 1 hour. Excess unbound conjugate was removed by washing 6 times over a 10 minute period with TBST. 125µl of tetramethylbenzidine (TMB) substrate solution was added to each well of the plate that was then incubated for 20 minutes in the dark at room temperature. The reaction was terminated by addition of 125µl 0.2M H2SO4 to each well. The absorbance was then measured at 450nm using a microtiter plate reader. The data are inputted to a computer program called 'KC Junior'. It is a 4 parameter fit curve and allow the calculatation of concentrations between the standard runs. This program is used to calculate the IC50s by dividing the 0ng/ml OD value by 2 and obtaining the concentration value from the curve for this OD.
(§3) In a similar manner to that described above, the wells of a 96-well microtiter plate were coated with the IgG fraction of the antiserum raised to Immunogens IV, VII or VIII. Standard solutions (JWH-018 for Immunogens IV and VIII, JWH-015 for Immunogen VII) were prepared in TBST at 0, 1.25, 2.5, 5, 10, 20, 40 and 80ng/ml and conjugate was employed as detection reagent.
(§4) The data set our in Tables 3 and 4 are generated using antibodies raised against the indicated Immunogens in a competitive binding assay with the indicated tracers, using the indicated standards: Table 2
(§5) A450 = absorbance at 450nm B = absorbance at 450nm at xng/ml standard concentration B0 = absorbance at 450nm at 0ng/ml standard concentration IC50 = standard concentration which produces 50% B/B0
(§6) In order to determine the specificity of the competitive ELISAs, standard solutions of a range of structurally similar synthetic cannabinoids and their metabolites were prepared in TBST. Using the calibration curves generated and employing a single level of cross reactants, these were used to determine the cross-reactivity of each immunoassay with these substances. […]

[1] = test system: Antibody to Immunogen VIII; settings: Cross-reactants at 100 ng/ml; Antibody to Immunogen VIII
Method: as §1, §2, §3, §4, §5, §6

[2] = test system: Antibody to Immunogen VII; settings: Cross-reactants at 100 ng/ml; Antibody to Immunogen VII
Method: as §1, §2, §3, §4, §5, §6

Antibody to Immunogen I = settings: Cross-reactants at 100 ng/ml; Antibody to Immunogen I
Method: as §1, §2
In a similar manner to that described above, the wells of a 96-well microtiter plate were coated with the IgG fraction of the antiserum raised to Immunogens I or II. Standard solutions (JWH-018 for Immunogen I and II) were applied at 0, 0.625, 1.25, 2.5, 5, 10, 20 and 40ng/ml and conjugate was employed as detection reagent.
as §4, §5, §6

| Molecule | %B/B0 (Antibody to Immunogen IV) | %B/B0 [1] | %B/B0 [2] | %B/B0 (Antibody to Immunogen I) |
| --- | --- | --- | --- | --- |
| CCCCCCCC(C)(C)c1ccc([C@H]2CCC[C@@H](O)C2)c(O)c1 [CP-49,497-C8-homologue] | 94.66% | 104.88% | 98.55% | 101.11% |
| CCCCCn1cc(C(=O)Cc2ccc(Cl)cc2)c2ccccc21 [JWH-206 (JWH-203 4-chloro isomer), JWH-203 4-chloro isomer] | 65.63% | 10.55% | 97.17% | 75.96% |
| CCCCCn1cc(C(=O)Cc2ccccc2C)c2ccccc21 [JWH-251] | 42.02% | 9.12% | 96.74% | 68.01% |
| CCCCCn1cc(C(=O)c2cccc(OC)c2)c2ccccc21 [RCS-4 3-methoxy isomer] | 25.65% | 10.95% | 94.72% | 31.19% |
| CCCCCn1cc(C(=O)Cc2cccc(C)c2)c2ccccc21 [JWH 251 3-methylphenyl isomer] | 51.15% | 8.97% | 99.32% | 85.90% |
| CCCCCCC(C)(C)c1cc(OC)c([C@@H]2C=C(CO)[C@@H]3C[C@H]2C3(C)C)c(OC)c1 [HU-308] | 94.03% | 89.77% | 95.95% | 101.35% |
| JWH 203 3-chloro isomer [JWH 203 3-chloro isomer (JWH-237)] | 55.09% | 10.34% | 97.42% | 95.59% |
| COc1ccc(CC(=O)c2cn(CCC3CCCCC3)c3ccccc23)cc1 [RCS-8 4-methoxy isomer] | 90.78% | 100.72% | 98.21% | 94.94% |
| CCCCCn1cc(C(=O)Cc2ccccc2OC)c2cc(O)ccc21 [JWH 250 5-hydroxyindole metabolite] | 84.05% | 67.19% | 99.88% | 100.75% |
| CCCCCn1cc(C(=O)c2ccc(CC)c3ccccc23)c2cc(O)ccc21 [JWH-210 5-hydroxyindole metabolite] | 48.91% | 87.72% | 100.43% | 83.29% |
| CCCCCn1c(O)c(C(=O)c2cccc3ccccc23)c2ccccc21 [JWH-018 2-hydroxyindole metabolite] | 100.14% | 101.36% | 95.08% | 95.37% |
| COc1ccc(C(=O)c2cn(CCCCCC(=O)O)c3ccccc23)cc1 [RCS-4 N-(5-carboxypentyl) metabolite] | 91.44% | 91.97% | 94.00% | 77.12% |
| CCCCCn1c(C)c(C(=O)c2ccc(OC)c3ccccc23)c2ccccc21 [JWH-098] | 44.03% | 59.80% | 82.85% | 77.58% |
| CCCCCn1cc(C(=O)c2ccc(OC)cc2)c2ccccc21 [RCS-4] | 19.21% | 5.93% | 93.51% | 80.46% |
| CCCCCn1cc(C(=O)Cc2ccccc2OC)c2ccccc21 [JWH-250] | 41.08% | 9.40% | 97.23% | 78.94% |
| CCCCCn1cc(C(=O)Cc2ccc(OC)cc2)c2ccccc21 [JWH-201] | 59.03% | 8.26% | 100.25% | 77.14% |
| JWH-081 2-methoxynaphthyl isomer [JWH-081 2-methoxynaphthyl isomer or (JWH-267)] | 27.67% | 58.20% | 83.43% | 69.58% |
| CCCCCn1cc(C(=O)C23CC4CC(CC(C4)C2)C3)c2ccccc21 [JWH 018 adamantyl analog] | 99.02% | 10.97% | 94.48% | 95.94% |
